In patent US20050165006A1, “Quinoline derivatives, their preparation and pharmaceutical compositions comprising the same” (priority 2002, published 2005):
Like-named read-outs stand apart in the source and are kept apart here.

Legend:
[1] = target: serotonin transporter (SERT) (Rattus norvegicus, UniProt P31652); assay: Radioligand binding assay with [3H]citalopram on synaptic membrane; conditions: for activity / binding affinity relative to 6-nitro-2-piperazin-1-yl-quinoline: ratio of Ki values of Table 3; for affinity (Ki value) compared with Fluoxetine: comparison in words on Table 3
Protocol: After male SD Rats (250˜350 g) were decapitate by using quillotine, the whole brains were removed. The cerebral cortex were carefully cut to slices and weighed. 0.32 M sucrose which is 10 times of sucrose was added to the slices, and then homogenized twice for 15 seconds using Polytron. After being centrifuged at 4° C. for 10 minutes in 1,000×g, the thus obtained supernatant was re-centrifuged at 20,000×g for 20 minutes and then discarded. The precipitate was isolated, re-suspended in deionized water, was provided with osmotic shock for 10 minutes, and then centrifuged at 80,000×g for 20 minutes. The thus obtained precipitate was suspended in 50 ml of triacetate buffer, re-centrifuged at 48,000×g, and then transferred to a refrigerator. On the day of assay, the cells were thawed on ice, washed by centrifugation (48,000×g, 20 minutes).
The mixture was shaken at 25° C. for 60 minutes, incubated, filtered using a Brandel Cell Harvester through a GF/B Watman filter presoaked in 0.05 polyethylimine. The filters were then washed twice with 5 ml of ice-cold buffer, dried, added with 7 ml of ultima gold scintillation cocktail, and then shaken for 3˜4 hours.

Acute toxicity in rats = type: in vivo; conditions: SD, rat, in vivo
Protocol: (§1) 6-week old SPF SD line rats were used in the tests for acute toxicity. 6-chloro-2-piperazin-1-yl-quinoline or 4-chloro-6-nitro-2-piperazin-1-yl-quinoline were suspended in 1 ml saline buffer solution and […] administered to anterior tibialis once to 6 rats per group at the dosage of 500 mg/kg. Death, clinical symptoms, and weight change in rats were observed, hematological tests and biochemical tests of blood performed, and any abnormal signs in the gastrointestinal organs of chest and abdomen checked with eyes during autopsy. […]

SPF SD line rats = assay: Acute toxicity in rats; type: in vivo
Protocol: as §1

depression-induced mice = assay: Assay for anti-depression activity using a forced swimming test; type: in vivo; conditions: orally administered, 50 mg/kg (FIG. 1), p<0.003
Protocol: After 4-chloro-6-nitro-2-piperazin-1-yl-quinoline was dissolved in dimethylsulfoxide in a variety of concentrations and injected to depression-induced mice, the time of immobility was measured. The immobility time may be evaluated by measuring the effect against anti-depression. Because immobility means a helplessness of the mice, in this case, slow immobility should be understood to reduce depression.
4-chloro-6-nitro-2-piperazin-1-yl-quinoline was orally administered after 23 hours from the first treatment, subsequently, after 24 hours, the animals were placed in the cage to carry out the second treatment and the immobility time was measured for 5 minutes. The immobility caused by the second treatment was recorded while watching video tape. In order to make an objective observation, we made an average of the results of make than 3 people.

ICR mice = assay: Assay for anti-depression activity using a tail suspension test; type: in vivo; conditions: for anti-depression effect higher than that of control (immobility time): ICR mice, oral
Protocol: The inventors carried out the tail suspension test to evaluate an anti-depression activity of the present compound. ICR mice were divided into 5 groups made up of 8 subjects, and orally dosed with 4-chloro-6-nitro-2-piperazin-1-yl-quinoline dissolved in saline buffer solution in a variety of its concentration 60 minutes prior to the beginning of the experiment. The evaluation of the activity was estimated using administering group, negative, and positive group. After suspending the animal by the tail induced the immobility, the immobility time was measured 6 minutes watching a recorded tape for video. The final data was obtained an average value measured by 3 persons to accurate the data.

SERT = SERT (Homo sapiens, UniProt P31645); conditions: known values, background art; read-out: binding affinity (Ki) to SERT; cited from earlier work
[2] = 1 nM [3H]citalopram, rat cerebral cortex synaptic membrane, 25° C., 60 minutes

Sequence of serotonin transporter (SERT) (P31652 whole entry): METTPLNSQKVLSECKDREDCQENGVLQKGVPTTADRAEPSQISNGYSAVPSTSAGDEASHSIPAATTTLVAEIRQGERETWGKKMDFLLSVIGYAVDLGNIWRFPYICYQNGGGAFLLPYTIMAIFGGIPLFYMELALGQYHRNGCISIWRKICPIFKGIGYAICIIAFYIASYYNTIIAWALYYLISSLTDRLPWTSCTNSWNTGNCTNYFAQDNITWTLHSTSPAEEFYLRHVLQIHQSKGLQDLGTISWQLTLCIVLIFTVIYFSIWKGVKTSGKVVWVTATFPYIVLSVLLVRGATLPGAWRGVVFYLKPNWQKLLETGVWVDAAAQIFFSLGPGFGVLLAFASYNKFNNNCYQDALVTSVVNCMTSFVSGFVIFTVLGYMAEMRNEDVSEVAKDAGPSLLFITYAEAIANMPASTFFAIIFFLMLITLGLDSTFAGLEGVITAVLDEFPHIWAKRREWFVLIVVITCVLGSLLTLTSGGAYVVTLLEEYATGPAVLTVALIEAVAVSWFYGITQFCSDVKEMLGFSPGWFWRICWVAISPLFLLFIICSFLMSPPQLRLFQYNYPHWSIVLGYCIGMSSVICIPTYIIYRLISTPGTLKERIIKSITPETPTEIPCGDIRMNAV
Sequence of SERT (P31645 whole entry, species assumed): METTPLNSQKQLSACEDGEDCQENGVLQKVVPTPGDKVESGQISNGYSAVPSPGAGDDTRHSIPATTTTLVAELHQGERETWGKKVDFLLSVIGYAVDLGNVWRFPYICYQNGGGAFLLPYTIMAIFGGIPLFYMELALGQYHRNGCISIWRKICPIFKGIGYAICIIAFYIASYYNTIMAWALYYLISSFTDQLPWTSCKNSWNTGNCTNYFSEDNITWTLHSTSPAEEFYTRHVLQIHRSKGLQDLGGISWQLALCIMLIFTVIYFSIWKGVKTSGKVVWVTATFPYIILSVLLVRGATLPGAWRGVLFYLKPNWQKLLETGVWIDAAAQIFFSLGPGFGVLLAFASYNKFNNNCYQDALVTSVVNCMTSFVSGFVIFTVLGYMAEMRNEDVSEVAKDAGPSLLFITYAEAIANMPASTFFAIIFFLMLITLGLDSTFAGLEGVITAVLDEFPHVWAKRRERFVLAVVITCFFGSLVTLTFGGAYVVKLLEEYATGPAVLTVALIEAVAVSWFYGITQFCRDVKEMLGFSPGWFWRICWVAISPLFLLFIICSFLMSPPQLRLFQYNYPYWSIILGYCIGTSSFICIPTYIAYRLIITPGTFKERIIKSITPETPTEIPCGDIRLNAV

SMILES: O=[N+]([O-])c1ccc2nc(N3CCNCC3)c(CCCCl)cc2c1 [Example 4, 3-(3-chloropropyl)-6-nitro-2-piperazin-1-yl-quinoline]
- Ki [1]: 1.08 ± 0.17 nM

SMILES: Brc1ccc2nc(N3CCNCC3)ccc2c1 [Example 7, 6-bromo-2-piperazin-1-yl-quinoline]
- Ki [1, 2]: 0.91 ± 0.07 nM

SMILES: O=[N+]([O-])c1ccc2nc(N3CCNCC3)cc(Cl)c2c1 [Example 10, 4-chloro-6-nitro-2-(piperazin-1-yl)quinoline]
- LD50 (Acute toxicity in rats; 500 mg/kg): > 500 mg/kg
- acute toxicity observations (death, clinical symptoms, weight change) (SPF SD line rats; rat, in vivo, 500 mg/kg): did not cause any specific clinical symptoms, weight change, or death
- anti-depression effect higher than that of the control (immobility time) (depression-induced mice): 30%
- Ki [1]: 0.017 nM
- activity / binding affinity relative to 6-nitro-2-piperazin-1-yl-quinoline [1]: 10 times
- activity / binding affinity relative to 6-nitro-2-piperazin-1-yl-quinoline ([1]; listed as 4-chloro-6-nitro-2-piperazin-1-yl-quinoline): over ten times
- effect higher than that of the control (immobility time) (ICR mice; FIG. 2B, 1 mg/kg or 10 mg/kg, anova p<0.005): about 65%
- anti-depression effect higher than that of control (immobility time) (ICR mice; 5 mg/kg): 56%
- anti-depression effect higher than that of control (immobility time) (ICR mice; 50 mg/kg): 60%
- ED50 (ICR mice; Mus musculus, expected from evenness of effect from 1 to 50 mg/kg): < 1 mg/kg

SMILES: CC1CN(c2ccc3cc([N+](=O)[O-])ccc3n2)CCN1 (stereo not shown) [Example 15, 2-(3-methylpiperazin-1-yl)-6-nitroquinoline]
- Ki [1, 2]: 22.2 ± 1.7 nM

SMILES: O=[N+]([O-])c1ccc2nc(N3CCNCC3)c(CCCF)cc2c1 [Example 5, 3-(3-fluoropropyl)-6-nitro-2-piperazin-1-yl-quinoline]
- Ki [1, 2]: 0.32 ± 0.01 nM
- affinity (Ki value) compared with Fluoxetine [1]: exceed that of Fluoxetine

SMILES: C=Cc1cc(N2CCNCC2)nc2ccc([N+](=O)[O-])cc12 [Example 13, 6-nitro-2-(piperazin-1-yl)-4-vinylquinoline]
- Ki [1]: 1.42 nM

SMILES: CCCc1cc2cc([N+](=O)[O-])ccc2nc1N1CCNCC1 [Example 3, 6-nitro-2-(piperazin-1-yl)-3-propylquinoline]
- Ki [1]: 0.26 ± 0.01 nM
- affinity (Ki value) compared with Fluoxetine [1]: exceed that of Fluoxetine

SMILES: CCc1cc2cc([N+](=O)[O-])ccc2nc1N1CCNCC1 [Example 2, 3-ethyl-6-nitro-2-(piperazin-1-yl)quinoline]
- Ki [1]: 0.36 ± 0.02 nM
- affinity (Ki value) compared with Fluoxetine [1]: exceed that of Fluoxetine

SMILES: O=[N+]([O-])c1ccc2nc(N3CCCNCC3)ccc2c1 [Example 17, 2-[1,4]diazepin-1-yl-6-nitroquinoline]
- Ki [1, 2]: 1.9 ± 0.15 nM

SMILES: O=[N+]([O-])c1ccc2nc(N3CCNCC3)ccc2c1 [6-nitro-2-piperazin-1-yl-quinoline, 6-nitro-2-(piperazin-1-yl)quinoline, reference compound]
- Ki (SERT): 0.018 nM
- Ki [1, 2]: 0.17 ± 0.03 nM

SMILES: Clc1ccc2nc(N3CCNCC3)ccc2c1 [Example 8, 6-chloro-2-piperazin-1-yl-quinoline]
- LD50 (Acute toxicity in rats; rats, single administration of 500 mg/kg, read-out: estimated LD50): > 500 mg/kg
- acute toxicity observations (death, clinical symptoms, weight change) (SPF SD line rats; rats, single administration of 500 mg/kg, 6 rats per group): did not cause any specific clinical symptoms, weight change, or death
- Ki [1, 2]: 1.68 ± 0.13 nM

SMILES: CNCCN(C)c1ccc2cc([N+](=O)[O-])ccc2n1 [Example 16, 2-(N-methyl-N-(2-N′-methylamino)ethyl)amino-6-nitroquinoline]
- Ki [1, 2]: 8.43 ± 0.45 nM

SMILES: O=[N+]([O-])c1ccc2nc(N3CCNCC3)c(Br)cc2c1 [Example 9, 3-bromo-6-nitro-2-(piperazin-1-yl)quinoline]
- Ki [1, 2]: 12.6 ± 1.14 nM

SMILES: Ic1ccc2nc(N3CCNCC3)ccc2c1 [Example 6, 6-iodo-2-piperazin-1-yl-quinoline]
- Ki [1, 2]: 6.6 ± 0.52 nM

SMILES: O=[N+]([O-])c1ccc2nc(N3CCNCC3)cc(-c3ccco3)c2c1 [Example 14, 4-(2-furanyl)-6-nitro-2-(piperazin-1-yl)quinoline]
- Ki [1]: 6.4 nM

SMILES: Cc1cc2cc([N+](=O)[O-])ccc2nc1N1CCNCC1 [Example 1, 3-methyl-6-nitro-2-(piperazin-1-yl)quinoline]
- Ki [1]: 8.45 ± 0.62 nM
